Test results published in the supplement of paper PMC4649846.

How the values were obtained:
MDA-MB-231 [1] = experiment: drug sensitivity score (DSS); higher = more sensitive; extreme values may be limits of the assay; details: incubation time: 72 h
In short: (§1)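 MDA-MB-231 cells were transfected with siRNA against BRCA1 or with non-targeting control siRNA, and a day later were seeded at 4000 cells per well into 384-well plates containing compounds at 5 concentrations. Plates were kept for 72 h at 37 °C and 5% CO2, after which viability was measured by CellTiter-Blue fluorescence. Logistic dose–response fits in Dotmatics Studies gave the IC50 and the drug sensitivity score, the latter being curve area relative to a reference area and normalised by log of top response.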

MDA-MB-231 [2] = details: incubation time: 72 h
In short: as §1

[3] = siRNA: siControl (non-targeting)

SMILES	drug sensitivity score (MDA-MB-231 [1]; siRNA: siBRCA1)	drug sensitivity score (MDA-MB-231 [1]; [3])	IC50 of cell viability (MDA-MB-231 [2]; siRNA: siBRCA1)	IC50 of cell viability (MDA-MB-231 [2]; [3])
COCC[n+]1c2c(n(Cc3cnccn3)c1C)C(=O)c1ccccc1C2=O [YM155]	40.2	40.6	3.75 nM	3.56 nM
CC[C@@]1(O)C(=O)OCc2c1cc1n(c2=O)Cc2cc3ccccc3nc2-1 [Camptothecin]	16.9	10.9	45.6 nM	328 nM
Nc1ccccc1NC(=O)c1ccc(CNC(=O)OCc2cccnc2)cc1 [Entinostat]	0	2.12	> 4170 nM	> 4170 nM
CC(C)Cn1cnc2c(N)nc3ccccc3c21 [Imiquimod]	0	0	> 4170 nM	> 4170 nM
Cc1c2oc3c(C)ccc(C(=O)N[C@@H]4C(=O)N[C@H](C(C)C)C(=O)N5CCC[C@H]5C(=O)N(C)CC(=O)N(C)[C@@H](C(C)C)C(=O)O[C@@H]4C)c3nc-2c(C(=O)N[C@@H]2C(=O)N[C@H](C(C)C)C(=O)N3CCC[C@H]3C(=O)N(C)CC(=O)N(C)[C@@H](C(C)C)C(=O)O[C@@H]2C)c(N)c1=O [Dactinomycin]	36.8	38.3	4.19 nM	2.18 nM
OC[C@H]1O[C@@H](n2cnc3c2N=CNC[C@H]3O)C[C@@H]1O [Pentostatin]	0	0	> 4170 nM	> 4170 nM
COc1cc(Nc2ncc3c(n2)-c2ccc(Cl)cc2C(c2c(F)cccc2OC)=NC3)ccc1C(=O)O [MLN8237 (Alisertib)]	4.61	8.75	917 nM	358 nM
CC1(C)CNc2cc(NC(=O)c3cccnc3NCc3ccncc3)ccc21 [Motesanib]	0	0	> 4170 nM	> 4170 nM
Clc1ccc(C(c2ccccc2Cl)C(Cl)Cl)cc1 (stereo not given) [Mitotane]	1.03	0	> 4170 nM	> 4170 nM
CC1CCN(C(=O)CC#N)CC1N(C)c1ncnc2[nH]ccc12 (stereo in doubt) [Tasocitinib]	0	0	> 4170 nM	> 4170 nM
CN1CC[C@H](c2c(O)cc(O)c3c(=O)cc(-c4ccccc4Cl)oc23)[C@H](O)C1 [Alvocidib]	18.8	20.2	181 nM	150 nM
NC(=O)c1ccc(I)c([N+](=O)[O-])c1 [Iniparib]	0	0	> 4170 nM	> 4170 nM
Cc1ccc(Nc2nccc(N(C)c3ccc4c(C)n(C)nc4c3)n2)cc1S(N)(=O)=O [Pazopanib]	0	0	> 4170 nM	> 4170 nM
COC1=CC(c2cc3ccccc3[nH]2)=N/C1=C\c1[nH]c(C)cc1C [Obatoclax]	15	15	399 nM	355 nM
CC(C)C(=O)Nc1ccc([N+](=O)[O-])c(C(F)(F)F)c1 [Flutamide]	0	0	> 4170 nM	> 4170 nM
CNC(=O)c1ccccc1Sc1ccc2c(/C=C/c3ccccn3)n[nH]c2c1 [Axitinib]	0	0	> 4170 nM	> 4170 nM
NCCCNCCSP(=O)(O)O [Amifostine]	0	0	> 4170 nM	> 4170 nM
CC(=O)O[C@H]1C(=O)[C@@]2(C)[C@H]([C@H](OC(=O)c3ccccc3)[C@]3(O)C[C@H](OC(=O)[C@H](O)[C@@H](NC(=O)c4ccccc4)c4ccccc4)C(C)=C1C3(C)C)[C@]1(OC(C)=O)CO[C@@H]1C[C@@H]2O [Paclitaxel]	29.8	27.2	6.6 nM	11.2 nM
Nc1nc(F)nc2c1ncn2[C@@H]1O[C@H](CO)[C@@H](O)[C@@H]1O [Fludarabine]	0	3.39	> 4170 nM	333 nM
CC(C)(C)c1cnc(CSc2cnc(NC(=O)C3CCNCC3)s2)o1 [SNS-032]	23.9	27.6	53.1 nM	30.1 nM

SMILES	drug sensitivity score (MDA-MB-231 [1]; siRNA: siBRCA1)	drug sensitivity score (MDA-MB-231 [1]; [3])	IC50 of cell viability (MDA-MB-231 [2]; siRNA: siBRCA1)	IC50 of cell viability (MDA-MB-231 [2]; [3])
COc1cc(OC2CCN(C)CC2)ccc1Nc1ncc2c(n1)n(C1CCCC1)c(=O)n2C [AZ 3146]	0	0	> 4170 nM	> 4170 nM
CCC/C=C/C=C/C(=O)O[C@H]1/C(=C/C(=O)OC)C[C@H]2C[C@H]([C@@H](C)O)OC(=O)C[C@H](O)C[C@@H]3C[C@H](OC(C)=O)C(C)(C)[C@](O)(C[C@@H]4C/C(=C/C(=O)OC)C[C@H](/C=C/C(C)(C)[C@]1(O)O2)O4)O3 [Bryostatin 1]	0	0	83.3 nM	83.3 nM
C[C@@H](C(=O)O)c1ccc(-c2ccccc2)c(F)c1 [Tarenflurbil]	0	0	> 4170 nM	> 4170 nM
CO[C@H]1C[C@@H]2CC[C@@H](C)[C@@](O)(O2)C(=O)C(=O)N2CCCC[C@H]2C(=O)O[C@H]([C@H](C)C[C@@H]2CC[C@@H](OC(=O)C(C)(CO)CO)[C@H](OC)C2)CC(=O)[C@H](C)/C=C(\C)[C@@H](O)[C@@H](OC)C(=O)[C@H](C)C[C@H](C)/C=C/C=C/C=C/1C [Temsirolimus]	14.6	14.4	3.9 nM	4.02 nM
Cc1ccc(-c2cc(C(F)(F)F)nn2-c2ccc(S(N)(=O)=O)cc2)cc1 [Celecoxib]	3.29	0	1350 nM	> 4170 nM
CC[C@@H]1C(=O)N(C)c2cnc(Nc3ccc(C(=O)NC4CCN(C)CC4)cc3OC)nc2N1C1CCCC1 [BI 2536]	23.3	24.9	5.67 nM	3.08 nM
COc1cccc2cc(-c3nc([C@H]4CC[C@H](C(=O)O)CC4)n4ncnc(N)c34)[nH]c12 [OSI-027]	7.16	7.26	973 nM	1080 nM
COc1cc2nccc(Oc3ccc(NC(=O)Nc4cc(C)on4)c(Cl)c3)c2cc1OC [Tivozanib]	3.36	2.37	> 4170 nM	2460 nM
CC(=O)Nc1cccc(-n2c(=O)n(C3CC3)c(=O)c3c(Nc4ccc(I)cc4F)n(C)c(=O)c(C)c32)c1	22	22.5	2.46 nM	2.21 nM
c1ccc2c(CCNc3ccc(Nc4ccncc4)cc3)c[nH]c2c1 [Serdemetan]	4.84	6.59	> 4170 nM	2560 nM
O=C(Nc1c[nH]nc1-c1nc2ccc(CN3CCOCC3)cc2[nH]1)NC1CC1 [AT9283]	16.5	18.6	267 nM	173 nM
Nc1ccn([C@@H]2O[C@H](CO)[C@@H](O)[C@@H]2O)c(=O)n1 [Cytarabine]	5.84	6.18	591 nM	294 nM
CN(C)CCN1C(=O)c2cccc3cc(N)cc(c23)C1=O [Amonafide]	8.98	6.72	1790 nM	2160 nM
O=C(NC[C@H](O)CO)c1ccncc1Nc1ccc(I)cc1F	16	17.4	132 nM	50 nM
CCc1c2c(nc3ccc(OC(=O)N4CCC(N5CCCCC5)CC4)cc13)-c1cc3c(c(=O)n1C2)COC(=O)[C@]3(O)CC [Irinotecan]	6.18	3.11	760 nM	576 nM
CN1CCN(CCOc2cc(OC3CCOCC3)c3c(Nc4c(Cl)ccc5c4OCO5)ncnc3c2)CC1 [Saracatinib]	6.55	10.4	652 nM	90.5 nM
N#CC[C@H](C1CCCC1)n1cc(-c2ncnc3[nH]ccc23)cn1 [Ruxolitinib]	0	0	> 4170 nM	> 4170 nM
Cc1ccc(-n2nc(C(C)(C)C)cc2NC(=O)Nc2ccc(OCCN3CCOCC3)c3ccccc23)cc1 [Doramapimod]	0	0	> 4170 nM	> 4170 nM
CNC(=O)c1cc(Oc2ccc(NC(=O)Nc3ccc(Cl)c(C(F)(F)F)c3)c(F)c2)ccn1 [BAY 73-4506]	4.52	2.71	900 nM	813 nM
Cc1[nH]c2ccccc2c1CCNCc1ccc(/C=C/C(=O)NO)cc1 [Panobinostat]	28.7	29.6	31.7 nM	27.5 nM
